We go through six substances from article PMC10447463, “Data-mining unveils structure–property–activity correlation of viral infectivity enhancing self-assembling peptides” (Nature Communications, 2023).

The nature of data set [1]: Aggregate analysis by widefield fluorescence microscopy. The data set is classed as physicochemical. In a few lines: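 First, each peptide (1 mg/mL in PBS, from DMSO stock) incubates 1 d at room temperature; next, it is mixed with 50 µM ThT to 0.1 mg/mL; finally, widefield images at 10x (ex 480/40, em 527/30 nm) are analysed by object counting for particles exceeding 10 µm^2, in triplicate.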

Data set [2] deals with HIV-1 infection of TZM-bl cells. Conditions: literature report; cited from earlier work. An excerpt:
page 30: 8. Amyloid peptides from functional and pathogenic contexts Table S1 Selected amyloid peptides from protein data bases and literature reports. Note, that the peptide KLVFFAK, derived from amyloid ab was reported for retroviral transduction enhancement, however with very low efficiencies (> 4 fold compared to virus only). 33 ”+” indicates reported ThT fluorescence (ThT) or fibril formation, “0” indicates no data reported. All peptides were synthesized via Fmoc SPPS protocol and purchased . w ≥ . sequence ThT fibril pI charge hfauchere derived from original context ref. IKFLSVN + + 9.7 ...

The mark [3] stands for this setting: Fig S8 panels A, C, 3 fields of 1330 µm x 1330 µm.
[4] abbreviates: Fig S8 panels B, D, average aggregate area, 3 fields of 1330 µm x 1330 µm.
The mark [5] stands for this setting: Fig S8 panels B, D, median aggregate area, 3 fields of 1330 µm x 1330 µm.
Where [6] appears, read: Fig S8 panels B, D, 3 fields of 1330 µm x 1330 µm.
Where [7] appears, read: Fig S8 panels B, D, widefield fluorescence microscopy, 3 fields of 1330 µm x 1330 µm.

Some results are limits rather than exact numbers.

Take HHHHKIKIQINMYYYY [TM16]: in data set [1] (Fig S8 panels A, C), the “Avg Area in 3 *(1330 µm *1330 µm)” value amounted to 97.09, the “Log 10 Number of aggregates in 3 * (1330 µm *1330 µm)” value (“Log 10 Number of aggregates in 3 *” for short) is given as 2.3686, the “Median Area in 3 * (1330 µm *1330 µm)” value is recorded as 27.74 and the “log Avg Area in 3 * ( (1330 µm *1330 µm))” value (“log Avg Area in 3 *” for short) amounted to 1.987. For the same substance, in data set [1] (Fig S8 panels A, C), the “log Median Area in 3 * ( (1330 µm *1330 µm))” value (from here on “log Median Area in 3 *”) stood at 1.443 and the “log Total Area of all particles in 3 * (1330 µm *1330 µm)” value (“log Total Area of all particles in 3 *” for short) was found to be 4.356. The “Number of aggregates in 3 * (1330 µm *1330 µm)” value in data set [1] (setting [3]) came to 233.7. The “Avg Area in 3 *(1330 µm *1330 µm)” value in data set [1] (setting [4]) is 97.09. In addition, the “Median Area in 3 * (1330 µm *1330 µm)” value in data set [1] (setting [5]) is on record as 27.74. In addition, the “Total Area of all particles in 3 * (1330 µm *1330 µm)” value in data set [1] (setting [6]) was found to be 22686.609. In data set [1] (setting [7]), the “Number of aggregates in 3 * (1330 µm *1330 µm)” value was 233.7.

Turning to HIHIQIC [CN12], in data set [1] (Fig S8 panels A, C), the “Avg Area in 3 *(1330 µm *1330 µm)” value turned out to be 747.6, the “Log 10 Number of aggregates in 3 *” value was 1.523, the “Median Area in 3 * (1330 µm *1330 µm)” value stood at 85.979 and the “log Avg Area in 3 *” value was 2.874. In data set [1] (Fig S8 panels A, C), the “log Median Area in 3 *” value was determined as 1.934 and the “log Total Area of all particles in 3 *” value came out at 4.397. Further, in data set [1] (setting [3]), the “Number of aggregates in 3 * (1330 µm *1330 µm)” value worked out at 33.33. Moreover, the “Avg Area in 3 *(1330 µm *1330 µm)” value in data set [1] (setting [4]) was determined as 747.6. Further, in data set [1] (setting [5]), the “Median Area in 3 * (1330 µm *1330 µm)” value is reported as 85.979. Besides, in data set [1] (setting [6]), the “Total Area of all particles in 3 * (1330 µm *1330 µm)” value worked out at 24920.46633. The “Number of aggregates in 3 * (1330 µm *1330 µm)” value in data set [1] (setting [7]) came out at 33.33.

In the case of KIKIQIN [JGB3], in data set [1] (Fig S8 panels A, C), the “Avg Area in 3 *(1330 µm *1330 µm)” value was found to be 197.4, the “Log 10 Number of aggregates in 3 *” value was 0.6021, the “Median Area in 3 * (1330 µm *1330 µm)” value came out at 197.8005 and the “log Avg Area in 3 *” value amounted to 2.295. Besides, in data set [1] (Fig S8 panels A, C), the “log Median Area in 3 *” value was 2.296 and the “log Total Area of all particles in 3 *” value is given as 2.897. Further, the “Number of aggregates in 3 * (1330 µm *1330 µm)” value in data set [1] (setting [3]) is 4. In data set [1] (setting [4]), the “Avg Area in 3 *(1330 µm *1330 µm)” value is on record as 197.4. Also, the “Median Area in 3 * (1330 µm *1330 µm)” value in data set [1] (setting [5]) was determined as 197.8005. Further, the “Total Area of all particles in 3 * (1330 µm *1330 µm)” value in data set [1] (setting [6]) is 789.7. Besides, the “Number of aggregates in 3 * (1330 µm *1330 µm)” value in data set [1] (setting [7]) was 4.

With KIKQIIN [JGA3], in data set [1] (Fig S8 panels A, C), the “Avg Area in 3 *(1330 µm *1330 µm)” value amounted to 51.51, the “Log 10 Number of aggregates in 3 *” value came to 1.067, the “Median Area in 3 * (1330 µm *1330 µm)” value worked out at 15.7 and the “log Avg Area in 3 *” value was 1.712. Moreover, in data set [1] (Fig S8 panels A, C), the “log Median Area in 3 *” value amounted to 1.196 and the “log Total Area of all particles in 3 *” value came to 2.779. In addition, the “Number of aggregates in 3 * (1330 µm *1330 µm)” value in data set [1] (setting [3]) is 11.67. The “Avg Area in 3 *(1330 µm *1330 µm)” value in data set [1] (setting [4]) is 51.51. In addition, in data set [1] (setting [5]), the “Median Area in 3 * (1330 µm *1330 µm)” value is reported as 15.7. Besides, in data set [1] (setting [6]), the “Total Area of all particles in 3 * (1330 µm *1330 µm)” value turned out to be 600.94. Further, in data set [1] (setting [7]), the “Number of aggregates in 3 * (1330 µm *1330 µm)” value came to 11.67.

For the substance KLVFFAK [reference compound], the “retroviral transduction enhancement compared to virus only” value in data set [2] is given as more than 4 fold.

As to RGDSGGGGGGKIKIQIC [TM114 / RC17], in data set [1] (Fig S8 panels A, C), the “Avg Area in 3 *(1330 µm *1330 µm)” value is recorded as 372.8, the “Log 10 Number of aggregates in 3 *” value is given as 1.857, the “Median Area in 3 * (1330 µm *1330 µm)” value was determined as 53.0945 and the “log Avg Area in 3 *” value is recorded as 2.572. In addition, in data set [1] (Fig S8 panels A, C), the “log Median Area in 3 *” value worked out at 1.725 and the “log Total Area of all particles in 3 *” value is on record as 4.429. In addition, the “Number of aggregates in 3 * (1330 µm *1330 µm)” value in data set [1] (setting [3]) amounted to 72. Also, the “Avg Area in 3 *(1330 µm *1330 µm)” value in data set [1] (setting [4]) stood at 372.8. Also, in data set [1] (setting [5]), the “Median Area in 3 * (1330 µm *1330 µm)” value is 53.0945. The “Total Area of all particles in 3 * (1330 µm *1330 µm)” value in data set [1] (setting [6]) amounted to 26843.97667. Further, the “Number of aggregates in 3 * (1330 µm *1330 µm)” value in data set [1] (setting [7]) turned out to be 72.
